Experimental data as given in patent US7708989B2, “Methods of treating vascular diseases characterized by nitric oxide insufficiency” (NitroMed, Inc., priority 1999, dated 2010).
“Also recorded” adds a separate entry of the source.

Experiments:
[1] = test system: conduit arteries; assay: Conduit vessel function by brachial ultrasound technique (nitroglycerin-mediated dilation); format: in vivo, human; conditions: for NTG-response (%): mean ± SD
Source text: The effects of hypertension and race on conduit vessel function were examined using a well-established brachial ultrasound technique (Vita et al, Lanzer & Lipton, Eds., Diagnostics of Vascular Diseases: Principles and Technology. Berlin:Springer-Verlag, pp.249-259 (1996)) in 370 patients (178 black, 192 white). […] Further, systolic blood pressure was inversely correlated with flow-mediated dilation (r=−0.30, P<0.001) and nitroglycerin-mediated dilation (r=−0.33, P<0.001). Diastolic pressure correlated to a similar extent with vascular function. By multiple linear regression analysis, vessel size and systolic blood pressure were the only independent predictors of flow-mediated dilation in this sizable group of patients.

[2] = test system: forearm microvessels; assay: Forearm microvascular vasodilator responses in salt-sensitive versus salt-resistant normotensive black patients; format: in vivo, human
Protocol: To explore the relation between salt-sensitivity and endothelium-derived NO action in black patients prior to the development of hypertension, the blood pressure response to salt-loading and salt-deprivation using an established inpatient protocol (Weinberger et al, Hypertension, 8:II-127-II-134 (1986)) in a group of normotensive black patients was assessed. Briefly, blood pressure was continuously monitored non-invasively during a salt load (sodium 458 mEq over 24 hours) and during a period of salt depletion (furosemide treatment and sodium intake 10 mEq over 24 hours). Patients were considered to be salt-sensitive if mean blood pressure was at least 10 mm Hg higher during the salt loading period (Weinberger et al, Hypertension, 8:II-127-II-134 (1986)).

[3] = cited from earlier work
[4] = test system: forearm microvessels; assay: Forearm blood flow responses by venous occlusion plethysmography in normotensive white and black patients; format: in vivo, human; conditions: 46 normotensive white and black patients matched for age and gender
Protocol: FIGS. 3A and 3B show forearm blood flow responses to nitroprusside (FIG. 3A) and methacholine (FIG. 3B) that were assessed by venous occlusion plethysmography in 25 white and 21 black patients without hypertension.
To investigate the issue of whether NO deficiency is a primary or secondary phenomenon in hypertensive black patients, 46 normotensive white and black patients who were matched for age and gender were compared. […] These findings are consistent with recently published results by other investigators (Lang et al, N EngI J Med, 333:155-160 (1995); Cardillo et al, Hypertension 31:1235-1239 (1998)).

[5] = test system: forearm microvessels; assay: Forearm blood flow responses to intra-arterial infusions by venous occlusion plethysmography in white and black hypertensive patients; format: in vivo, human; conditions: intra-arterial infusion

O=[N+]([O-])OCC(CO[N+](=O)[O-])O[N+](=O)[O-] [nitroglycerin]
nitroglycerin-mediated dilation according to race ([1]; 370 patients (178 black, 192 white)): no significant differences
NTG-response (%) ([1]; Black Patients, Hypertensive, p < 0.001 compared to race matched normotensives): 16.4 ± 7.1 %
NTG-response (%) ([1]; Black Patients, Normotensive): 20.6 ± 8.4%
NTG-response (%) ([1]; White Patients, Hypertensive, p < 0.001 compared to race matched normotensives): 14.6 ± 6.2 %
NTG-response (%) ([1]; White Patients, Normotensive): 18.1 ± 8.1%
effect of hypertension on nitroglycerin-mediated dilation ([1]; hypertensive versus normotensive patients): highly significant reduction

COc1ccc(CCN(C)CCCC(C#N)(c2ccc(OC)c(OC)c2)C(C)C)cc1OC (stereo not shown) [verapamil]
vasodilator response, salt-sensitive compared to salt-resistant patients ([2]; human, in vivo): equivalent

O=[N+]([O-])O[C@H]1CO[C@H]2[C@@H]1OC[C@H]2O[N+](=O)[O-] [isosorbide dinitrate, 1,4,3,6-dianhydro-D-glucitol-2,5-dinitrate]
solubility in organic solvents ([3]; organic solvents such as ethanol, ether and chloroform): freely soluble
solubility in water ([3]; water): sparingly soluble

CC(=O)OC(C)C[N+](C)(C)C (stereo not shown) [methacholine]
vasodilator response, salt-sensitive compared to salt-resistant patients ([2]; normotensive black patients, repeated measures ANOVA): trends for impaired vasodilator responses
vasodilator response, black compared to white normotensive patients [4]: no racial difference; also recorded: not significantly different
vasodilator (forearm blood flow) response, black compared to white hypertensive patients ([5]; 36 white and black hypertensive patients): impaired; also recorded: markedly worse
dilator response, hypertensive patients compared to age-matched normotensive controls ([5]; hypertensive versus normotensive controls): significantly reduced
